Source: patent US20120308682A1, “RUMINANT FEED, PRODUCTS, AND METHODS COMPRISING BENEFICIAL FATTY ACIDS” (MONSANTO TECHNOLOGY LLC, priority 2009, published 2012)

Tested on: Holstein cows
Test: Milk fatty acid composition after abomasal or ruminal infusion of SDA-enhanced soybean oil in dairy cows (gas chromatography)
Assay type: in vivo
Details: of the SDA present in the abomasally infused oil; range=36.8 to 41.9%
Description: In this Example, transgenic soybean oil containing SDA was either infused directly in the rumen or directly into the abomasum bypassing the rumen to examine the potential of using SDA-enhanced soybean oil to increase the milk fat content of omega-3 fatty acids in dairy cows and to determine the efficiency of SDA uptake from the digestive tract and transfer to milk fat.
Three multiparous, pregnant, rumen-fistulated Holstein cows averaging 267 days in lactation were assigned randomly to a 3×3 Latin square design. Treatments were: 1) control (no oil infusion); 2) abomasal infusion of SDA-enhanced SBO (SDA-abo) and 3) ruminal infusion of SDA-enhanced SBO (SDA-rum). Oil infusions (210 g/d) provided 57 g/d of stearidonic acid and infusion periods were 7 d with a 7 d washout between periods. […]
Cows were milked twice a day with two milk samples obtained at each milking. One milk sample was analyzed for major components (i.e., fat, protein, lactose) by infrared analysis. The second milk sample was analyzed for fatty acids with extraction, methylation and gas chromatographic analysis. Fatty acids were quantified using pure methyl ester standards and a butter oil reference standard was analyzed periodically to monitor column performance and correction factors for individual fatty acids. […]

SMILES: CC/C=C\C/C=C\C/C=C\C/C=C\CCCCC(=O)O [SDA, stearidonic acid]
- transfer efficiency of SDA to milk fat: 39.3%
